Assay results from patent US9856220B2 (AbbVie Deutschland GmbH & Co. KG, priority 2011, dated 2018).

Legend:
[1] = Determination of the microsomal half-life / microsomal clearance, rat liver microsomes; type: in vitro ADME; conditions: 0.5 μM test substance, 0.25 mg of microsomal protein/ml, pH 7.4, 37° C.
Method: (§1) b) Determination of the Microsomal Half-Life:
(§2) The metabolic stability of the compounds of the invention was determined in the following assay.
(§3) The test substances were incubated in a concentration of 0.5 μM as follows:
(§4) 0.5 μM test substance are preincubated together with liver microsomes from different species (from rat, human or other species) (0.25 mg of microsomal protein/ml) in 0.05 M potassium phosphate buffer of pH 7.4 in microtiter plates at 37° C. for 5 min. The reaction is started by adding NADPH (1 mg/mL). After 0, 5, 10, 15, 20 and 30 min, 50 μl aliquots are removed, and the reaction is immediately stopped and cooled with the same volume of acetonitrile. The samples are frozen until analyzed. The remaining concentration of undegraded test substance is determined by MSMS. The half-life (T½) is determined from the gradient of the signal of test substance/unit time plot, it being possible to calculate the half-life of the test substance, assuming first order kinetics, from the decrease in the concentration of the compound with time. The microsomal clearance (mCl) is calculated from mCl=ln 2/T½/(content of microsomal protein in mg/ml)×1000 [ml/min/mg]

[2] = target: PDE10A (Homo sapiens (Human), UniProt Q9Y233); assay: Measurement of PDE activity (recombinant PDE, cAMP HTRF); type: biochemical; conditions: 20 nM cyclic nucleotide substrate, 60 minutes at 29 C
Summary of the method: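 Recombinant human PDE10A in 20 mM Tris-HCl pH 7.5, 10 mM MgCl2, 0.1% BSA with 20 nM cyclic nucleotide substrate; reaction 60 min at 29 C after compound preincubation with enzyme. Residual cAMP detected by HTRF (cAMP-d2/anti-cAMP cryptate); IC50 from inhibitor concentration versus PDE activity.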

[3] = Determination of the microsomal half-life / microsomal clearance, human liver microsomes; type: in vitro ADME; conditions: 0.5 μM test substance, 0.25 mg of microsomal protein/ml, pH 7.4, 37° C.
Method: as §1, §2, §3, §4

PDE10A, sequence (Q9Y233 whole entry, species assumed): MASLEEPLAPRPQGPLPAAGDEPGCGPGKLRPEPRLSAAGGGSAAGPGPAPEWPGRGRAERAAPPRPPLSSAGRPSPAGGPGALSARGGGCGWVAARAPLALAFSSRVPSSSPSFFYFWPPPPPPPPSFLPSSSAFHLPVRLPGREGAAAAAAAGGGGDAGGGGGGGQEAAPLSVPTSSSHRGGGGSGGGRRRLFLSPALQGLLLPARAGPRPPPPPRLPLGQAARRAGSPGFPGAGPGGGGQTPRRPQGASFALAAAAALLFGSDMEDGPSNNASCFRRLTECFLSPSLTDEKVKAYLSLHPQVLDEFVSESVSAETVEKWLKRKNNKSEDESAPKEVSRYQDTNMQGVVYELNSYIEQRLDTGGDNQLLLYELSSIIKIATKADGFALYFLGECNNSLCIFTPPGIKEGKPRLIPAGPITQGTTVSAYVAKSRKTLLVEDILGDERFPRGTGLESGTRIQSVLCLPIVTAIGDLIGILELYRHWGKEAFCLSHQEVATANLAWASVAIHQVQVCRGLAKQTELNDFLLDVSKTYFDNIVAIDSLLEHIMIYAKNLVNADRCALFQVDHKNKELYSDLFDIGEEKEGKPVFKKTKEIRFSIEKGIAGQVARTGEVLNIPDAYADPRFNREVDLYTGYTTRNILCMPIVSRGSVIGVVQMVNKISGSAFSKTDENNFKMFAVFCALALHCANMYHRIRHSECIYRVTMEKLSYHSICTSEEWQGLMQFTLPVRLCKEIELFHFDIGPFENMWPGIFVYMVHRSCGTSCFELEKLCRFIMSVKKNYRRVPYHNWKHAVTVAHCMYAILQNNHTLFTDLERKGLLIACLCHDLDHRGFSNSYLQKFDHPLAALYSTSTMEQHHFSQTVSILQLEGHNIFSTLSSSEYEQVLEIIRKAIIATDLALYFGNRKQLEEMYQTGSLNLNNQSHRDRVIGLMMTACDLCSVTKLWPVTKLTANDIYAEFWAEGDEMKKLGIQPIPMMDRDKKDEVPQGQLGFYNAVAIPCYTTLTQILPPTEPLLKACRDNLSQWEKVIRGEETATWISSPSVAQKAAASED

Structure (SMILES)	Rat mCl [1]	IC50 [2] [nM]	Human mCl [3]
CCn1cc(C(=O)NCc2cc(C)cs2)c2cc(OC)c(OC)cc2c1=O [Example 317, 2-Ethyl-6,7-dimethoxy-N-[(4-methyl-2-thienyl)methyl]-1-oxo-isoquinoline-4-carboxamide]	+ (100-220 μl min^−1 mg^−1)	100 to 200	++ (<100 μl min^−1 mg^−1)
CCn1cc(C(=O)Nc2ccc(N3CCOCC3)cc2)c2cc(OC)c(OC)cc2c1=O [Example 141, 2-Ethyl-6,7-dimethoxy-N-(4-morpholinophenyl)-1-oxo-1,2-dihydroisoquinoline-4-carboxamide]	++ (<100 μl min^−1 mg^−1)	100 to 200	++ (<100 μl min^−1 mg^−1)
CCn1cc(C(=O)NCc2ccc(C(F)(F)F)cc2)c2cc(OC)c(OC)cc2c1=O [Example 310, 2-Ethyl-6,7-dimethoxy-1-oxo-N-[[4-(trifluoromethyl)phenyl]-methyl]isoquinoline-4-carboxamide]	++ (<100 μl min^−1 mg^−1)	–	++ (<100 μl min^−1 mg^−1)
CCC(CC)n1cc(C(=O)NCc2cscn2)c2cc(OC)c(OC)cc2c1=O [Example 203, 2-(1-Ethyl-propyl)-6,7-dimethoxy-1-oxo-1,2-dihydro-isoquinoline-4-carboxylic acid (thiazol-4-ylmethyl)-amide]	++ (<100 μl min^−1 mg^−1)	–	++ (<100 μl min^−1 mg^−1)
CCn1cc(C(=O)N[C@@H](C)c2ccc(C)cc2)c2cc(OC)c(OC)cc2c1=O [Example 311, 2-Ethyl-6,7-dimethoxy-1-oxo-N-[(1S)-1-(p-tolyl)ethyl]isoquinoline-4-carboxamide]	–	200 to 500	++ (<100 μl min^−1 mg^−1)
CCn1cc(C(=O)NCc2cscn2)c2cc(OC)c(OC)cc2c1=O [Example 309, 2-Ethyl-6,7-dimethoxy-1-oxo-N-(thiazol-4-ylmethyl)isoquinoline-4-carboxamide]	–	200 to 500	++ (<100 μl min^−1 mg^−1)
CCn1cc(C(=O)NC2CCc3sccc32)c2cc(OC)c(OC)cc2c1=O (single isomer, unassigned; (+)) [Example 204, (+)-2-Ethyl-6,7-dimethoxy-1-oxo-1,2-dihydro-isoquinoline-4-carboxylic acid (5,6-dihydro-4H-cyclopenta[b]thiophen-4-yl)-amide]	++ (<100 μl min^−1 mg^−1)	–	+ (100-220 μl min^−1 mg^−1)
CCn1cc(C(=O)N[C@H](C)c2ccc(C)cc2)c2cc(OC)c(OC)cc2c1=O [Example 314, 2-Ethyl-6,7-dimethoxy-1-oxo-N-[(1R)-1-(p-tolyl)ethyl]isoquinoline-4-carboxamide]	++ (<100 μl min^−1 mg^−1)	–	++ (<100 μl min^−1 mg^−1)
COc1cc2c(C(=O)NC3CCc4ccccc43)cn(C3CC3)c(=O)c2cc1OC (centres unmarked) [Example 196, 2-Cyclopropyl-6,7-dimethoxy-1-oxo-1,2-dihydro-isoquinoline-4-carboxylic acid indan-1-ylamide]	++ (<100 μl min^−1 mg^−1)	–	++ (<100 μl min^−1 mg^−1)
CCn1cc(C(=O)NCc2ccc(C(F)F)cc2)c2cc(OC)c(OC)cc2c1=O [Example 315, N-[[4-(Difluoromethyl)phenyl]methyl]-2-ethyl-6,7-dimethoxy-1-oxo-isoquinoline-4-carboxamide]	++ (<100 μl min^−1 mg^−1)	–	++ (<100 μl min^−1 mg^−1)
CCn1cc(C(=O)NCc2ccc(C(C)C)cc2)c2cc(OC)c(OC)cc2c1=O [Example 312, 2-Ethyl-N-[(4-isopropylphenyl)methyl]-6,7-dimethoxy-1-oxo-isoquinoline-4-carboxamide]	++ (<100 μl min^−1 mg^−1)	–	+ (100-220 μl min^−1 mg^−1)
CCC(CC)n1cc(C(=O)NC2CCc3ccccc32)c2cc(OC)c(OC)cc2c1=O (centres unmarked) [Example 135, 2-(1-Ethyl-propyl)-6,7-dimethoxy-1-oxo-1,2-dihydro-isoquinoline-4-carboxylic acid indan-1-ylamide]	–	< 100	–
CCn1cc(C(=O)NCc2ccc(C)c(F)c2F)c2cc(OC)c(OC)cc2c1=O [Example 278, N-[(2,3-Difluoro-4-methyl-phenyl)methyl]-2-ethyl-6,7-dimethoxy-1-oxo-isoquinoline-4-carboxamide]	–	200 to 500	–
CCn1cc(C(=O)NCc2ccc(C)cc2OCC(F)(F)F)c2cc(OC)c(OC)cc2c1=O [Example 288, 2-Ethyl-6,7-dimethoxy-N-[[4-methyl-2-(2,2,2-trifluoroethoxy)phenyl]methyl]-1-oxo-isoquinoline-4-carboxamide]	–	200 to 500	–
CCC(CC)n1cc(C(=O)NC2CCc3c(Cl)cccc32)c2cc(OC)c(OC)cc2c1=O (centres unmarked) [Example 265, N-(4-Chloro-2,3-dihydro-1H-inden-1-yl)-6,7-dimethoxy-1-oxo-2-(pentan-3-yl)-1,2-dihydroisoquinoline-4-carboxamide]	–	200 to 500	–
CCCCNC(=O)c1cn(CCc2ccc3ccccc3n2)c(=O)c2cc(OC)ccc12 [Example 182, 7-Methoxy-1-oxo-2-(2-quinolin-2-yl-ethyl)-1,2-dihydro-isoquinoline-4-carboxylic acid butylamide]	–	100 to 200	–
CCn1cc(C(=O)NCc2ccc(C)cc2F)c2cc(OC)c(OC)cc2c1=O [Example 273, 2-Ethyl-N-[(2-fluoro-4-methyl-phenyl)methyl]-6,7-dimethoxy-1-oxo-isoquinoline-4-carboxamide]	–	200 to 500	–
CCn1cc(C(=O)NC2CCc3cc(Cl)ccc32)c2cc(OC)c(OC)cc2c1=O (centres unmarked) [Example 169, N-(5-Chloro-2,3-dihydro-1H-inden-1-yl)-2-ethyl-6,7-dimethoxy-1-oxo-1,2-dihydroisoquinoline-4-carboxamide]	–	200 to 500	–
CCn1cc(C(=O)NCCC(C)(C)C)c2cc(OC)c(OC)cc2c1=O [Example 24, 2-Ethyl-6,7-dimethoxy-1-oxo-1,2-dihydro-isoquinoline-4-carboxylic acid (3,3-dimethyl-butyl)-amide]	–	200 to 500	–
CCn1cc(C(=O)NC2CCc3c(F)cccc32)c2cc(OC)c(OC)cc2c1=O (centres unmarked) [Example 173, 2-Ethyl-N-(4-fluoro-2,3-dihydro-1H-inden-1-yl)-6,7-dimethoxy-1-oxo-1,2-dihydroisoquinoline-4-carboxamide]	–	200 to 500	–
CCn1nc(C(=O)NC2CCc3ncccc32)c2cc(OC)c(OC)cc2c1=O (centres unmarked) [Example 129, 3-Ethyl-6,7-dimethoxy-4-oxo-3,4-dihydro-phthalazine-1-carboxylic acid (6,7-dihydro-5H-[1]pyrindin-5-yl)-amide]	–	< 100	–
CCCC(C)NC(=O)c1cn(CC)c(=O)c2cc(OC)c(OC)cc12 (centres unmarked) [Example 15, 2-Ethyl-6,7-dimethoxy-1-oxo-1,2-dihydro-isoquinoline-4-carboxylic acid (1-methyl-butyl)-amide]	–	200 to 500	–
